Structures are written as SMILES. Counter-ions that a name gives are not always drawn.

Sequence of S. aureus GyrB ATPase (P0A0K8 whole entry): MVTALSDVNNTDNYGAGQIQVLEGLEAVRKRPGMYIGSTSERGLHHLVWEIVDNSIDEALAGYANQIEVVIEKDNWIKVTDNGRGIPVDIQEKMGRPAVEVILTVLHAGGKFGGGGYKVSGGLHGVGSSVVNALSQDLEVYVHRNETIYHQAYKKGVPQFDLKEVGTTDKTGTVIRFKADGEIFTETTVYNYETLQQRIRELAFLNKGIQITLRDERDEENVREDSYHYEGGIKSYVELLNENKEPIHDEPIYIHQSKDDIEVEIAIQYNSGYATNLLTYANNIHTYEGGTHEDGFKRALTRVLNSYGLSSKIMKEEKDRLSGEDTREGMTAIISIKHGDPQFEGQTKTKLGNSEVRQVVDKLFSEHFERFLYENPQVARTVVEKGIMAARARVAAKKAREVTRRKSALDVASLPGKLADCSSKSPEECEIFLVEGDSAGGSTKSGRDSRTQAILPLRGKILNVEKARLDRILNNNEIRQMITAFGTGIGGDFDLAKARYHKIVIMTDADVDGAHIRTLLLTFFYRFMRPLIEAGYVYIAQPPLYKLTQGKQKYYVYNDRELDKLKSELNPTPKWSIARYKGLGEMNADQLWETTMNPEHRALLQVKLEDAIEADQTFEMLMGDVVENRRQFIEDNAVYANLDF
Sequence of S. aureus GyrB ATPase (P0AES4 whole entry, further chain): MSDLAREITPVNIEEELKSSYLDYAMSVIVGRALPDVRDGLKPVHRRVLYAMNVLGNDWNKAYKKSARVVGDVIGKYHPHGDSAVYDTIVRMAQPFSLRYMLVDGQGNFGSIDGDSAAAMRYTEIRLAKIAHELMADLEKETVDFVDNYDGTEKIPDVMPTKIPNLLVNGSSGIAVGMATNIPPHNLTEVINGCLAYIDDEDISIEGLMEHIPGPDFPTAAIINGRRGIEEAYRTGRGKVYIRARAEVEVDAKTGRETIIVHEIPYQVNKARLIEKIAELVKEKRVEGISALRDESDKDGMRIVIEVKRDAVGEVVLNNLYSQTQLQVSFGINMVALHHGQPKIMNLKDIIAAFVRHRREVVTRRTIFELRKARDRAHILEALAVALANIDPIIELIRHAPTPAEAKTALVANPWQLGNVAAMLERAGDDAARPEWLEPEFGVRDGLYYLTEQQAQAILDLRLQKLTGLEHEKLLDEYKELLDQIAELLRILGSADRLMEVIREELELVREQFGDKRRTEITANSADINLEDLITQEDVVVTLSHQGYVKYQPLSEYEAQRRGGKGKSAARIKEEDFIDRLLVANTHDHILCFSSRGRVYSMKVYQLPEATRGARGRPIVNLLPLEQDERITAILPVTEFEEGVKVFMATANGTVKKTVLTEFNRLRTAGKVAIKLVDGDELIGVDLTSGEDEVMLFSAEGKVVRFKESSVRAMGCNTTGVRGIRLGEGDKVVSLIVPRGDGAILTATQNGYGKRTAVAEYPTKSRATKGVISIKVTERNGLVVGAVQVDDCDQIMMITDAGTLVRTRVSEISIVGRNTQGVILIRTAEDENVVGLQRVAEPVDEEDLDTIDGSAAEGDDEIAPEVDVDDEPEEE

For one test, the target named is S. aureus GyrB ATPase (Staphylococcus aureus, UniProt P0A0K8). In words: S. aureus (SAU) GyrB ATPase inhibition, malachite green phosphate detection (E. coli GyrA + S. aureus GyrB). The format is biochemical. The following applies: compound concentration of 1.0 μM unless otherwise noted; average value where assay was carried out more than once; read-out: S. aureus (SAU) GyrB ATPase % Inhibition. The method in brief:
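E. coli GyrA and S. aureus GyrB (1.25 nM each) with 500 μM ATP and 5 μg/ml sheared salmon sperm DNA in 50 mM Hepes pH 7.5, 8.0 mM MgCl2. Released phosphate detected with ammonium molybdate/malachite green at 650 nm; 2% DMSO as 0% and 2 μM novobiocin as 100% inhibition; IC50 from 10 concentrations.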
Turning to `CCNC(=O)Nc1cc(-c2nc(C(F)(F)F)cs2)c(-c2cc(-c3n[nH]c(=O)o3)cnc2OCCN(C(C)C)C(C)C)cn1` [Example 120], the inhibition at 1 µM came to 118%.
Still for that read-out and setting: as for `CCNC(=O)Nc1cc(-c2nc(C(F)(F)F)cs2)c(-c2cc(-c3nnc([C@@H](N)C(C)C)o3)cnc2OCCN(CC)CC)cn1` [Example 122, 1-(5′-(5-(1-amino-2-methylpropyl)-1,3,4-oxadiazol-2-yl)-2′-(2-(diethylamino)ethoxy)-4-(4-(trifluoromethyl)thiazol-2-yl)-3,3′-bipyridin-6-yl)-3-ethylurea hydrochloride], the figure is 102%; as for `CCCNC(=O)Nc1cc(-c2nc(C(F)(F)F)cs2)c(-c2cc(-c3nnc(C)o3)cnc2OCCN(C(C)C)C(C)C)cn1` [Example 123, 1-(2′-(2-(Diisopropylamino)ethoxy)-5′-(5-methyl-1,3,4-oxadiazol-2-yl)-4-(4-(trifluoromethyl)thiazol-2-yl)-3,3′-bipyridin-6-yl)-3-propylurea], 78%; as for `CCNC(=O)Nc1cc(-c2nc(C(F)(F)F)cs2)c(-c2cnc(OC)nc2)cn1` [Example 125], 103%.
Turning to `CCNC(=O)Nc1cc(-c2nc(C(F)(F)F)cs2)c(-c2cnc(C#N)nc2)cn1` [Example 126], the inhibition at 1 µM turned out to be 102%.
The same measure, in the same setting: to `CCNC(=O)Nc1cc(-c2nc(C(F)(F)F)cs2)c(-c2ccc(F)nc2)cn1` [Example 127] belongs 100%; to `CCNC(=O)Nc1cc(-c2nc(-c3ccccc3)cs2)c(-c2cncc(S(N)(=O)=O)c2)cn1` [Example 128], 92%; to `CCNC(=O)Nc1cc(-c2nc(-c3ccccn3)cs2)c(-c2cncc(S(C)(=O)=O)c2)cn1` [Example 129], 102%.
For `CCNC(=O)Nc1cc(-c2nc(-c3ccccc3)cs2)c(-c2ccc[n+]([O-])c2)cn1` [Example 130], the inhibition at 1 µM was found to be 103%.
Consider `CCNC(=O)Nc1cc(-c2nc(C(F)(F)F)cs2)c(-c2cncc(-c3c[nH]c(=O)[nH]c3=O)c2)cn1` [Example 131, 1-(5′-(2,4-Dioxo-1,2,3,4-tetrahydropyrimidin-5-yl)-4-(4-(trifluoromethyl)thiazol-2-yl)-3,3′-bipyridin-6-yl)-3-ethylurea], for which the inhibition at 1 µM was 93%.
Still for that read-out and setting: to `CCNC(=O)Nc1cc(-c2nc(C(F)(F)F)cs2)c(-c2cncc(-c3c[nH]nc3C)c2)cn1` [Example 132] belongs 92%.
The same measure, in the same setting: as for `CCNC(=O)Nc1cc(-c2nc(C(F)(F)F)cs2)c(-c2cncc(-c3c(C)noc3C)c2)cn1` [Example 133], the figure is 104%.
For the molecule `CCNC(=O)Nc1cc(-c2nc(C(F)(F)F)cs2)c(-c2cncc(-c3ccn[nH]3)c2)cn1` [Example 134], the inhibition at 1 µM amounted to 120%.
For `CCNC(=O)Nc1cc(-c2nc(C(F)(F)F)cs2)c(-c2cncc(-c3n[nH]c(=O)[nH]3)c2)cn1` [Example 135, 1-Ethyl-3-(5′-(5-oxo-4,5-dihydro-1H-1,2,4-triazol-3-yl)-4-(4-(trifluoromethyl)thiazol-2-yl)-3,3′-bipyridin-6-yl)urea], the inhibition at 1 µM came out at 101%.
Still for that read-out and setting: as for `CCNC(=O)Nc1cc(-c2nc(C(F)(F)F)cs2)c(-c2cncc(-c3nnc(N)o3)c2)cn1` [Example 136, 1-(5′-(5-Amino-1,3,4-oxadiazol-2-yl)-4-(4-(trifluoromethyl)thiazol-2-yl)-3,3′-bipyridin-6-yl)-3-ethylurea], the figure is 102%; as for `CCNC(=O)Nc1cc(-c2nc(C(F)(F)F)cs2)c(-c2nc(-c3ncnn3C)c(-c3nnc(C)o3)s2)cn1` [Example 137, 1-Ethyl-3-(5-(5-(5-methyl-1,3,4-oxadiazol-2-yl)-4-(1-methyl-1H-1,2,4-triazol-5-yl)thiazol-2-yl)-4-(4-(trifluoromethyl)thiazol-2-yl)pyridin-2-yl)urea], 101%; as for `CCNC(=O)Nc1cc(-c2nc(C(F)(F)F)c(C)s2)c(-c2cncc(-c3nnc(C)o3)c2)cn1` [Example 138, 1-Ethyl-3-(5′-(5-methyl-1,3,4-oxadiazol-2-yl)-4-(5-methyl-4-(trifluoromethyl)thiazol-2-yl)-3,3′-bipyridin-6-yl)urea], 104%.
For the molecule `CCNC(=O)Nc1cc(-c2nc(C(F)(F)F)cs2)c(-c2cncc(-c3nn(C)c(=O)o3)c2)cn1` [Example 140], the inhibition at 1 µM turned out to be 97%.
Same read-out and setting: as for `CCNC(=O)Nc1cc(-c2nc(C(F)(F)F)cs2)c(-c2cc(-c3nnc(C)o3)cnc2OC2CCOCC2)cn1` [Example 141], the figure is 97%; as for `CCNC(=O)Nc1cc(-c2nc(C(F)(F)F)c(C)s2)c(-c2cc(-c3nnc(C)o3)cnc2OC2CCOCC2)cn1` [Example 142], 96%.
In the case of `CCNC(=O)Nc1cc(C2=NC(OC)(C(F)(F)F)CS2)c(-c2cncc(-c3n[nH]c(=O)o3)c2)cn1` (stereo not shown) [Example 143], the inhibition at 1 µM came to 98%.
On the same count and under the same terms, as for `CCNC(=O)Nc1cc(-c2nc(C(F)(F)F)c(C)s2)c(-c2cnc(OC)c(-c3n[nH]c(=O)o3)c2)cn1` [Example 144], the figure is 90%; as for `CCNC(=O)Nc1cc(-c2nc(C(F)(F)F)c(C)s2)c(-c2cncc(-c3n[nH]c(=O)o3)c2)cn1` [Example 145], 100%.
On the same count and under the same terms, as for `CCNC(=O)Nc1cc(-c2cc(C(F)(F)F)nn2C)c(-c2cncc(-c3n[nH]c(=O)o3)c2)cn1` [Example 146], the figure is 97%; as for `CCNC(=O)Nc1cc(-c2sc(C)nc2C)c(-c2cncc(-c3n[nH]c(=O)o3)c2)cn1` [Example 147], 95%; as for `CCNC(=O)Nc1cc(-n2cc(C(F)(F)F)cn2)c(-c2cncc(-c3n[nH]c(=O)o3)c2)cn1` [Example 148], 97%.
With `CCNC(=O)Nc1cc(N2CC(C)OC(C)C2)c(-c2cncc(-c3n[nH]c(=O)o3)c2)cn1` (stereo not shown) [Example 149], the inhibition at 1 µM was found to be 94%.
The same measure, in the same setting: to `CCNC(=O)Nc1cc(N2C[C@@H](C)O[C@@H](C)C2)c(-c2cncc(-c3n[nH]c(=O)o3)c2)cn1` [Example 150] belongs 96%; to `CCNC(=O)Nc1cc(N2CCCC(C)(C)C2)c(-c2cncc(-c3n[nH]c(=O)o3)c2)cn1` [Example 151], 97%.
The same measure, in the same setting: as for `CCNC(=O)Nc1cc(-c2nc(C(F)(F)F)cs2)c(-c2cncc(-c3nnc(NCCCN(C)C)o3)c2)cn1` [Example 152, 1-(5′-(5-(3-(Dimethylamino)propylamino)-1,3,4-oxadiazol-2-yl)-4-(4-(trifluoromethyl)thiazol-2-yl)-3,3′-bipyridin-6-yl)-3-ethylurea], the figure is 95%.
Still for that read-out and setting: to `CCNC(=O)Nc1cc(-c2nc(C(F)(F)F)cs2)c(-c2cncc(-c3nnc(NCCOC)o3)c2)cn1` [Example 153] belongs 100%.
Take `CCNC(=O)Nc1cc(-c2nc(C(F)(F)F)cs2)c(-c2cncc(-c3nnc(N4CCOCC4)o3)c2)cn1` [Example 154]: the inhibition at 1 µM was found to be 105%.
Consider `CCNC(=O)Nc1cc(-c2nc(C(F)(F)F)cs2)c(-c2cncc(-c3nnc(N4CCN(C)CC4)o3)c2)cn1` [Example 155], for which the inhibition at 1 µM is 96%.
For `CCNC(=O)Nc1cc(-c2nc(C(F)(F)F)cs2)c(-c2cncc(-c3nnc(N4CCN(C(C)=O)CC4)o3)c2)cn1` [Example 156], the inhibition at 1 µM came to 95%.
On the same count and under the same terms, to `CCNC(=O)Nc1cc(-c2nc(C(F)(F)F)cs2)c(-c2cncc(-c3nnc(NCCN(C)C)o3)c2)cn1` [Example 157] belongs 96%; to `CCNC(=O)Nc1cc(-c2nc(C(F)(F)F)cs2)c(-c2cncc(-c3nn(C(=O)N(C)C)c(=O)o3)c2)cn1` [Example 158, 5-(6′-(3-Ethylureido)-4′-(4-(trifluoromethyl)thiazol-2-yl)-3,3′-bipyridin-5-yl)-N,N-dimethyl-2-oxo-1,3,4-oxadiazole-3(2H)-carboxamide], 97%; to `CCNC(=O)Nc1cc(-c2nc(C(F)(F)F)cs2)c(-c2cncc(-c3nn(C(=O)N4CCCC4)c(=O)o3)c2)cn1` [Example 159], 97%.
On the same count and under the same terms, to `CCNC(=O)Nc1cc(-c2nc(C(F)(F)F)cs2)c(-c2cncc(-c3nn(CCOC)c(=O)o3)c2)cn1` [Example 160] belongs 98%.
Same read-out and setting: to `CCNC(=O)Nc1cc(-c2nc(C(F)(F)F)cs2)c(-c2cncc(-c3nn(C(C)=O)c(=O)o3)c2)cn1` [Example 161] belongs 97%; to `CCNC(=O)Nc1cc(-c2nc(C(F)(F)F)cs2)c(-c2cncc(-c3nn(CCO)c(=O)o3)c2)cn1` [Example 162], 98%; to `CCNC(=O)Nc1cc(-c2nc(C(F)(F)F)cs2)c(-c2cncc(/C(N)=N/O)c2)cn1` [Example 163, 6′-(3-Ethylureido)-N′-hydroxy-4′-(4-(trifluoromethyl)thiazol-2-yl)-3,3′-bipyridine-5-carboximidamide], 96%.
Take `CCNC(=O)Nc1cc(-c2nc(C(F)(F)F)cs2)c(-c2cncc(C(=N)N)c2)cn1` [Example 164, 6′-(3-Ethylureido)-4′-(4-(trifluoromethyl)thiazol-2-yl)-3,3′-bipyridine-5-carboximidamide]: the inhibition at 1 µM turned out to be 96%.
Regarding `CCNC(=O)Nc1cc(-n2ccc(C(F)(F)F)n2)c(-c2cncc(-c3nnc([C@@H](N)C(C)C)o3)c2)cn1` [Example 165], the inhibition at 1 µM came to 98%.
Still for that read-out and setting: to `CCNC(=O)Nc1cc(-c2nc(C(F)(F)F)cs2)c(-c2cncc(-c3nnc(C4CC4)o3)c2)cn1` [Example 166, 1-(5′-(5-Cyclopropyl-1,3,4-oxadiazol-2-yl)-4-(4-(trifluoromethyl)thiazol-2-yl)-3,3′-bipyridin-6-yl)-3-ethylurea] belongs 72%.
Consider `CCCNC(=O)Nc1cc(-c2nc(C(F)(F)F)cs2)c(-c2cc(-c3nnc(C)o3)cnc2OCCN(C)C)cn1` [Example 167], for which the inhibition at 1 µM came to 96%.

Staying with this test, now noted: read-out: S. aureus (SAU) GyrB ATPase % Inhibition.
With `CCNC(=O)Nc1cc(-c2nc(C(F)(F)F)cs2)c(-c2cc(-c3n[nH]c(=O)o3)c[n+]([O-])c2)cn1` [Example 139], the inhibition at 1 µM is 103%.

For orientation: inhibition means the relative decrease from the control value, in per cent.

The values are drawn from patent US20120101100A1 (priority 2008, published 2012).
